Measured values: patent publication US20230346735A1, “Nutritional Composition Comprising Carnitine and Method for Treating or Preventing an Infection in a Mammal” (priority 2020, published 2023)

Legend:
ACE-2 = experiment: Human study, serum ELISA, ACE-2; format: in vivo
Procedure: (§1) A human study was run with a total of 80 healthy male and female subjects ranging from 21 to 65 years of age, who were active (i.e. 30 minutes per day of moderate activity, 3 days per week) are randomized into two groups. […] Seventy-three subjects completed the trial and biomarker data were analyzed from the sera of the 73 completers. Sera were collected for analysis of C-Reactive Protein (CRP), ACE 1, ACE 2, TMPRSS 2, the Tumor Necrosis Factor alpha (TNF-alpha), and Furin at baseline in the beginning of the trial, at week 5 and 48 hr after an exercise challenge as described (Clinicaltrials.gov NCT04420377). The exercise challenge serves as surrogate to the inflammation stimulus.
(§2) To obtain human sera, venous blood was extracted by venipuncture of the antecubital vein using a 21-gauge syringe and collected into a 10 mL EDTA vacutainer tube (BD Vacutainer®, Becton, Dickinson and Company, Franklin Lakes, NJ) by a certified phlebotomist. […] Human ACE-1, ACE-2, TMPRSS2, Furin, CRP and TNF-alpha protein levels were assessed using commercially available ELISA kits, according the manufacturer recommendations, ACE-1 (R&D systems Inc., Minneapolis, MN, USA), ACE-2 (RayBiotech inc., Peachtree Corners, GA), TMPRSS2 (Novus Biologicals, Littleton, CO), CRP (R&D Systems Inc., Minneapolis, MN), TNF-alpha (Novus Biologicals, Littleton, CO), and Furin (Sigma Aldrich, St. Louis, MO). […]

C-Reactive Protein (CRP) = experiment: Human study, serum ELISA, CRP; format: in vivo
Procedure: as §1, §2

Q: Which ACE-2 serum levels (ACE-2; 2 g daily, 5 weeks, 48 hours after exercise challenge, versus placebo) does the source give for `C[N+](C)(C)C[C@H](O)CC(=O)[O-]` [L-carnitine] here?
A: significant decrease

Q: And the “decrease in ACE-2” value (ACE-2; group A, from baseline compared to Wk5, p=0.046)?
A: 8%

Q: What about the “plasma CRP concentration, mean diff Group A versus Group B” value (C-Reactive Protein (CRP); at 48 hr-Post, p<0.005) of the same molecule?
A: -0.55 mg/L

Q: What about the “serum CRP levels” value (C-Reactive Protein (CRP); from baseline after 5 weeks of supplementation, compared to placebo group) of the same molecule?
A: significantly lower
